From ChEMBL document CHEMBL5107949, “Design, synthesis, and antibacterial activity of N-(trifluoromethyl)phenyl substituted pyrazole derivatives” (RSC Med Chem, 2021) come the findings set out here.

Data set [1] relates to Staphylococcus aureus. The data set is described as follows: Antibacterial activity against antibiotic susceptible Staphylococcus aureus ATCC 25923 assessed as inhibition of bacterial growth by CLSI protocol based broth microdilution method. Format: functional.
Data set [2] deals with Staphylococcus aureus. The data set is described as follows: Antibacterial activity against antibiotic resistant Staphylococcus aureus ATCC 33591 assessed as inhibition of bacterial growth by CLSI protocol based broth microdilution method. The class given is functional.
In data set [3] the test system is Staphylococcus aureus. The data set is described as follows: Antibacterial activity against antibiotic resistant Staphylococcus aureus ATCC 33592 assessed as inhibition of bacterial growth by CLSI protocol based broth microdilution method. The class given is functional. A general note: In broth dilution the organism is exposed to a series of concentrations in liquid medium.

Data set [4] has as its system Staphylococcus aureus. The data set is described as follows: Antibacterial activity against antibiotic resistant Staphylococcus aureus BAA-2312 assessed as inhibition of bacterial growth by CLSI protocol based broth microdilution method. Format: functional.
For data set [5], the system named is Staphylococcus aureus. The data set is described as follows: Antibacterial activity against antibiotic resistant Staphylococcus aureus ATCC 700699 assessed as inhibition of bacterial growth by CLSI protocol based broth microdilution method. The class given is functional.
Data set [6] has as its system Staphylococcus epidermidis. The data set is described as follows: Antibacterial activity against antibiotic resistant Staphylococcus epidermidis ATCC 700296 assessed as inhibition of bacterial growth by CLSI protocol based broth microdilution method. The class given is functional.
The next data set deals with Bacillus subtilis. The data set is described as follows: Antibacterial activity against antibiotic resistant Bacillus subtilis ATCC 6623 assessed as inhibition of bacterial growth by CLSI protocol based broth microdilution method. The class given is functional.
The next data set relates to Enterococcus faecalis. The data set is described as follows: Antibacterial activity against antibiotic susceptible Enterococcus faecalis ATCC 29212 assessed as inhibition of bacterial growth by CLSI protocol based broth microdilution method. Format: functional.
For another data set, the system named is Enterococcus faecium. The data set is described as follows: Antibacterial activity against vancomycin resistant Enterococcus faecium ATCC 700221 assessed as inhibition of bacterial growth by CLSI protocol based broth microdilution method. The class given is functional.
Data set [7] is described as follows: Cytotoxicity against human HEK293 cells reduction in cell viability incubated for 24 hrs by resazurin cell viability assay. The class given is toxicity, cell-based. (Alamar Blue is a resazurin reagent that responds to reducing activity.)

≈ marks a conversion by molar mass, not a printed value.

As usually defined, the MIC is the lowest concentration found to suppress growth. As for `Cc1cc(NCc2cn(-c3ccc(C(F)(F)F)cc3)nc2-c2ccc(C(=O)O)cc2)ccc1F`, the MIC with Staphylococcus aureus [1] was found to be 12.5 µg/mL (≈ 26.6 µM); in the data set with Staphylococcus aureus [2], 25 µg/mL (≈ 53.3 µM); with Staphylococcus aureus [3] it was 6.25 µg/mL (≈ 13.3 µM); in the data set with Staphylococcus aureus [4], 25 µg/mL (≈ 53.3 µM); in the data set on Staphylococcus aureus [5], 6.25 µg/mL (≈ 13.3 µM); in [6] it was 25 µg/mL (≈ 53.3 µM). Besides, the MIC in the data set with Bacillus subtilis was 12.5 µg/mL (≈ 26.6 µM); in the data set with Enterococcus faecalis, 25 µg/mL (≈ 53.3 µM); in the data set with Enterococcus faecium, 12.5 µg/mL (≈ 26.6 µM).
One may read the IC50 as the midpoint of a concentration-inhibition curve. For `O=C(O)c1ccc(-c2nn(-c3ccc(C(F)(F)F)cc3)cc2CNc2ccc(Cl)c(Cl)c2)cc1`, the MIC in the data set with Staphylococcus aureus [1] was 1.56 µg/mL (≈ 3.08 µM); in the data set on Staphylococcus aureus [2], 1.56 µg/mL (≈ 3.08 µM); with Staphylococcus aureus [3], 1.56 µg/mL (≈ 3.08 µM); with Staphylococcus aureus [4] it was 1.56 µg/mL (≈ 3.08 µM); in the data set on Staphylococcus aureus [5], 0.78 µg/mL (≈ 1.54 µM); in [6], 3.12 µg/mL (≈ 6.16 µM). The MIC with Bacillus subtilis was 0.39 µg/mL (≈ 0.77 µM); in the data set with Enterococcus faecalis, 3.12 µg/mL (≈ 6.16 µM); in the data set on Enterococcus faecium, 1.56 µg/mL (≈ 3.08 µM). Also, the IC50 at 24 h in [7] was over 12 µg/mL.
Consider `CC(C)(C)c1ccc(NCc2cn(-c3ccc(C(F)(F)F)cc3)nc2-c2ccc(C(=O)O)cc2)cc1`, for which the minimal inhibitory concentration (MIC) with Staphylococcus aureus [1] came out at 1.56 µg/mL (≈ 3.16 µM); in the data set on Staphylococcus aureus [2] it was 3.12 µg/mL (≈ 6.32 µM); in the data set on Staphylococcus aureus [3], 1.56 µg/mL (≈ 3.16 µM); in the data set with Staphylococcus aureus [4], 3.12 µg/mL (≈ 6.32 µM); in the data set with Staphylococcus aureus [5] it was 1.56 µg/mL (≈ 3.16 µM); in data set [6], 3.12 µg/mL (≈ 6.32 µM). The values for the MIC in the data set with Bacillus subtilis, with Enterococcus faecalis and with Enterococcus faecium were 1.56 µg/mL (≈ 3.16 µM), 3.12 µg/mL (≈ 6.32 µM) and 1.56 µg/mL (≈ 3.16 µM), respectively. The compound also showed an IC50 at 24 h in data set [7] of 8 µg/mL (≈ 16.2 µM).
For `O=C(O)c1ccc(-c2nn(-c3ccc(C(F)(F)F)cc3)cc2CNc2ccc(C(F)(F)F)cc2)cc1`, the minimal inhibitory concentration (MIC) was 12.5 µg/mL (≈ 24.7 µM) in the data set with Staphylococcus aureus [1]; 12.5 µg/mL (≈ 24.7 µM) in the data set with Staphylococcus aureus [2]; 6.25 µg/mL (≈ 12.4 µM) in the data set on Staphylococcus aureus [3]; 12.5 µg/mL (≈ 24.7 µM) in the data set with Staphylococcus aureus [4]; 3.12 µg/mL (≈ 6.17 µM) with Staphylococcus aureus [5]; 12.5 µg/mL (≈ 24.7 µM) in data set [6]. Besides, the MIC in the data set with Bacillus subtilis is 6.25 µg/mL (≈ 12.4 µM); in the data set on Enterococcus faecalis, 25 µg/mL (≈ 49.5 µM); with Enterococcus faecium, 12.5 µg/mL (≈ 24.7 µM).
Regarding `O=C(O)c1ccc(-c2nn(-c3ccc(C(F)(F)F)cc3)cc2CNc2ccccc2)cc1`, the MIC worked out at 25 µg/mL (≈ 57.2 µM) with Staphylococcus aureus [1]; 50 µg/mL (≈ 114 µM) in the data set on Staphylococcus aureus [2]; 25 µg/mL (≈ 57.2 µM) in the data set on Staphylococcus aureus [3]; 25 µg/mL (≈ 57.2 µM) with Staphylococcus aureus [4]; 25 µg/mL (≈ 57.2 µM) with Staphylococcus aureus [5]; 25 µg/mL (≈ 57.2 µM) in [6]. Further, the minimal inhibitory concentration (MIC) with Bacillus subtilis and in the data set on Enterococcus faecium was 25 µg/mL (≈ 57.2 µM) throughout.
As to `CSc1ccc(NCc2cn(-c3ccc(C(F)(F)F)cc3)nc2-c2ccc(C(=O)O)cc2)cc1`, the MIC in the data set on Staphylococcus aureus [1] came out at 12.5 µg/mL (≈ 25.9 µM); in the data set on Staphylococcus aureus [2], 25 µg/mL (≈ 51.7 µM); in the data set on Staphylococcus aureus [3], 25 µg/mL (≈ 51.7 µM); in the data set with Staphylococcus aureus [4], 25 µg/mL (≈ 51.7 µM); in the data set with Staphylococcus aureus [5] it was 12.5 µg/mL (≈ 25.9 µM); in data set [6], 50 µg/mL (≈ 103 µM). Moreover, the figures for the minimum inhibitory concentration (MIC) with Bacillus subtilis, in the data set with Enterococcus faecalis and in the data set on Enterococcus faecium were 25 µg/mL (≈ 51.7 µM), 25 µg/mL (≈ 51.7 µM) and 12.5 µg/mL (≈ 25.9 µM), respectively.
As to `CN1CCN(c2ccc(NCc3cn(-c4ccc(C(F)(F)F)cc4)nc3-c3ccc(C(=O)O)cc3)cc2C(F)(F)F)CC1`, the MIC with Staphylococcus aureus [1] worked out at 25 µg/mL (≈ 41.4 µM); in the data set with Staphylococcus aureus [2] it was 50 µg/mL (≈ 82.8 µM); in the data set with Staphylococcus aureus [3], 12.5 µg/mL (≈ 20.7 µM); with Staphylococcus aureus [4], 25 µg/mL (≈ 41.4 µM); in the data set on Staphylococcus aureus [5] it was 12.5 µg/mL (≈ 20.7 µM); in the data set on Bacillus subtilis, 25 µg/mL (≈ 41.4 µM). Also, the MIC in the data set on Enterococcus faecalis and with Enterococcus faecium was 25 µg/mL (≈ 41.4 µM) in each case.
Take `O=C(O)c1ccc(-c2nn(-c3ccc(C(F)(F)F)cc3)cc2CNc2ccc(F)c(F)c2)cc1`: the MIC with Staphylococcus aureus [1] was determined as 12.5 µg/mL (≈ 26.4 µM); in the data set on Staphylococcus aureus [2] it was 25 µg/mL (≈ 52.8 µM); in the data set on Staphylococcus aureus [3], 6.25 µg/mL (≈ 13.2 µM); in the data set with Staphylococcus aureus [4], 25 µg/mL (≈ 52.8 µM); in the data set with Staphylococcus aureus [5], 6.25 µg/mL (≈ 13.2 µM); in [6], 25 µg/mL (≈ 52.8 µM). The values for the MIC in the data set with Bacillus subtilis, with Enterococcus faecalis and in the data set with Enterococcus faecium were 12.5 µg/mL (≈ 26.4 µM), 25 µg/mL (≈ 52.8 µM) and 12.5 µg/mL (≈ 26.4 µM), respectively.
As to `COc1ccc(NCc2cn(-c3ccc(C(F)(F)F)cc3)nc2-c2ccc(C(=O)O)cc2)cc1`, the MIC in the data set with Staphylococcus aureus [1] is 50 µg/mL (≈ 107 µM); in the data set with Staphylococcus aureus [3] it was 25 µg/mL (≈ 53.5 µM); in the data set on Staphylococcus aureus [5], 25 µg/mL (≈ 53.5 µM); with Bacillus subtilis, 25 µg/mL (≈ 53.5 µM).
As to `O=C(O)c1ccc(-c2nn(-c3ccc(C(F)(F)F)cc3)cc2CNc2ccc(Br)cc2)cc1`, the MIC in the data set on Staphylococcus aureus [1] is 6.25 µg/mL (≈ 12.1 µM); in the data set on Staphylococcus aureus [2] it was 6.25 µg/mL (≈ 12.1 µM); with Staphylococcus aureus [3], 3.12 µg/mL (≈ 6.04 µM); with Staphylococcus aureus [4] it was 6.25 µg/mL (≈ 12.1 µM); with Staphylococcus aureus [5] it was 3.12 µg/mL (≈ 6.04 µM); in data set [6] it was 12.5 µg/mL (≈ 24.2 µM). The figures for the MIC with Bacillus subtilis, in the data set with Enterococcus faecalis and with Enterococcus faecium were 3.12 µg/mL (≈ 6.04 µM), 6.25 µg/mL (≈ 12.1 µM) and 6.25 µg/mL (≈ 12.1 µM), respectively.
